Experimental findings from patent US8496945B2, “Nanoparticle delivery systems for membrane-integrating peptides” (priority 2007, dated 2013) are described below.

Several values for one entry are separate records, joined by “and”; a condition that tells them apart may be missing. Equal entries are not always repeated.

Assay [1] has as its system C-32 melanoma cells. Description: Cell proliferation inhibition (MTT) assay. The settings on record: 3 hours treatment, then 72 hours. The format is cell-based. The method, then:
The effect of αvβ3-targeted melittin-nanoparticles on C-32 cancer cell proliferation was determined by the 3-[4,5-dimethylthiazol-2-yl]2,5-diphenyltetrazolium bromide (MTT) assay. The assay measures the activity of a mitochondrial enzyme that converts MTT, a tetrazolium salt, into a formazan crystal that absorbs at 570 nm.
(§1) C-32 melanoma cells were seeded in 96-well plates at a seeding density of 5,000 cells/well. After overnight incubation at 37° C., the cells were treated with free melittin, αvβ3-targeted or nontargeted melittin nanoparticles at various concentrations. At the end of 3 hours of incubation at 37° C., the cells were washed three times with PBS and incubated at 37° C. for a period of 72 hours. Then the medium was aspirated, and the cells rinsed with phosphate buffered saline (PBS) and 20 μl MTT solution (Sigma-Aldrich, St. Louis, Mo., final concentration 5 mg/ml in PBS) was added to each well. Cells were further incubated at 37° C. for 30 min, solubilized in 200 μl DMSO to dissolve the precipitated formazan and the absorbance read on a microplate reader (Biorad, Model 550) at 570 nm. Background absorbencies were subtracted and untreated control cells were set at 100% viability.

The nature of assay [2]: Surface plasmon resonance kinetics of melittin insertion in lipid monolayers (Biacore L1 chip). The settings on record: melittin 15 to 1,000 nM. The format is binding. The method, then: The kinetics of melittin insertion in lipid monolayers of perfluorocarbon nanoparticles was studied by surface plasmon resonance (SPR). SPR detects change in the reflective index of a surface. Biacore-X biosensor and carboxy methylated dextran chip L1 were obtained from Biacore, Inc (Piscataway, N.J.). All solutions were degassed and filtered through a 0.22 μm membrane as recommended. A uniform lipid monolayer on an L1 chip was created by injecting 35 μl PFOB nanoparticles (3 μl/min). Loosely deposited nanoparticles were removed by first increasing the flow rate to […] for 2 min followed by an injection of NaOH (50 μl, 10 mM) to ensure a stable baseline. Complete coverage was confirmed by injecting the negative control bovine serum albumin (25 μl, […] in PBS). Melittin in various concentrations was then injected at a flow rate of 30 μl/min (30 μl in PBS; 15 nM to 1000 nM) and the response recorded for 60 minutes. At the end of each experiment the chip was regenerated by two consecutive injections of 3-[(3-cholamidopropyl)dimethylammonio]-1-propanesulfonate (CHAPS) (50 μl, 100 μl/min). A series of sensorgrams was generated for the selected melittin concentrations. The data were analyzed globally by simultaneously fitting the peptide sensorgrams obtained at various concentrations using the BIAevaluation™ software (Biacore, Inc, Piscataway, N.J.). […]
In general terms: In SPR one partner is held on a chip, and binding of the other changes the refractive index at the surface.

The test system of assay [3] is C-32 melanoma cells. Description: Cytochrome c release assay. The class given is cell-based. The protocol: Cytochrome c is a water-soluble 15 kDa protein residing in the mitochondrial intermembrane space and is released early during apoptosis. To determine if melittin-loaded nanodroplets trigger release of cytochrome c, C-32 melanoma cells were treated with varying concentrations of melittin-nanoparticles for 1 hour at 37° C. following which the mitochondria were isolated by using the Mitochondrial Isolation Kit (Pierce Biotechnology, Rockford, Ill.). The cytochrome c present in the mitochondrial and cytosol fractions thus obtained was assayed by using the cytochrome c ELISA kit (Invitrogen, Carlsbad, Calif.).

The next assay has as its system red cells. Description: Hemolysis assay. The format is cell-based, Human. The settings on record: 5×10^7 red cells, 37° C., 3 hours; read-out: IC50 (concentration that causes 50% hemolysis). The protocol: Human umbilical cord blood was obtained from healthy donors after informed consent. The red cells were separated by centrifugation at 200 g for 10 min and resuspended in normal saline. Various concentrations of melittin or melittin-carrying nanoparticles were added to a fixed number of red cells (5×10^7 cells) and incubated at 37° C. for 3 hours. The release of hemoglobin was quantified by measuring the absorbance at 540 nm of the supernatant in a Microplate Reader (Model 550, BioRad) after centrifugation. The absorbance of the supernatant obtained by incubating the red cells in water under identical conditions was set to 100%.

For assay [4], the system named is C-32 melanoma cells. The assay is described as follows: Lactate dehydrogenase release assay. The settings on record: 1 hour at 37° C., 0.1% triton-X 100 = 100%. The format is cell-based. The protocol:
Lactate dehydrogenase (LDH) is a stable enzyme that is rapidly released from the cells upon plasma membrane damage. The lactate dehydrogenase release assay kit was obtained from BioVision (Mountain View, Calif.) and the assay performed according to manufacturers instructions. Briefly, C-32 melanoma cells were either treated with free melittin or melittin-nanoparticles at various concentrations for 1 hour at 37° C. and the amount of lactate dehydrogenase released quantified. Cells treated with 0.1% triton-X 100 were taken as 100% release.

Assay [5] relates to C-32 melanoma cells. The assay is described as follows: Cholesterol depletion, Amplex Red Cholesterol Assay. The class given is cell-based. The settings on record: 15 min at 37° C. The method, then: The role of cholesterol in modulating the melittin activity on the cell membrane was assessed by depleting cells of cholesterol before the cell proliferation assay and flow cytometry (as described above). C-32 Melanoma cells were treated with either 0.25 mM or 0.5 mM methyl beta cyclodextrin (Sigma, St. Louis, Mo.) for 15 min at 37° C. to deplete cholesterol. To quantify the amount of cholesterol depleted by methyl beta cyclodextrin, total lipids were extracted from melanoma cells by standard procedure. Briefly, 10^6 C-32 melanoma cells grown in 6-well tissue culture plates were scraped by a rubber policeman and the pellet obtained post-centrifugation was treated with 200 μl chloroform-methanol (2:1). After spinning top speed in a microcentrifuge, the organic phase was collected and vacuum dried. The dried lipids were then dissolved in 20 μl of 2-propanol containing 10% triton-X 100 as assay samples. The total cholesterol content in the cells was determined by using the Amplex® Red Cholesterol Assay kit (Sigma, St. Louis, Mo.). Cholesterol standard was used for calibration as per manufacturer's recommendations.

The subject of assay [6] is cholesterol-depleted C-32 Melanoma cells. Description: Effect of cholesterol depletion on cell death (MTT assay). The class given is cell-based. The settings on record: 0.25 mM and 0.5 mM, no melittin. The protocol: as §1
The role of cholesterol in modulating the melittin activity on the cell membrane was assessed by depleting cells of cholesterol before the cell proliferation assay and flow cytometry (as described above). […] To quantify the amount of cholesterol depleted by methyl beta cyclodextrin, total lipids were extracted from melanoma cells by standard procedure. […] The total cholesterol content in the cells was determined by using the Amplex® Red Cholesterol Assay kit (Sigma, St. Louis, Mo.). […]
In general terms: Formazan colour is commonly taken as a measure of viable cells.

On to `CC[C@H](C)[C@H](NC(=O)CN)C(=O)NCC(=O)N[C@@H](C)C(=O)N[C@H](C(=O)N[C@@H](CC(C)C)C(=O)N[C@@H](CCCCN)C(=O)N[C@H](C(=O)N[C@@H](CC(C)C)C(=O)N[C@H](C(=O)N[C@H](C(=O)NCC(=O)N[C@@H](CC(C)C)C(=O)N1CCC[C@H]1C(=O)N[C@@H](C)C(=O)N[C@@H](CC(C)C)C(=O)N[C@H](C(=O)N[C@@H](CO)C(=O)N[C@@H](Cc1c[nH]c2ccccc12)C(=O)N[C@H](C(=O)N[C@@H](CCCCN)C(=O)N[C@@H](CCCNC(=N)N)C(=O)N[C@@H](CCCCN)C(=O)N[C@@H](CCCNC(=N)N)C(=O)N[C@@H](CCC(N)=O)C(=O)N[C@@H](CCC(N)=O)C(N)=O)[C@@H](C)CC)[C@@H](C)CC)[C@@H](C)O)[C@@H](C)O)C(C)C)C(C)C` [free melittin, melittin], for which the IC50 in the assay with C-32 melanoma cells [1] was 0.93 ± 0.08 µM; with red cells, 0.51 ± 0.12 µM. Also, in assay [2], the “association rate constant (ka)” value is recorded as 4.5±0.35×10^6 (Ms)^−1. Also, the “release of cytochrome c from the mitochondria” value in the assay on C-32 melanoma cells [3] (1 hour at 37° C., varying concentrations) was “dose-dependent release”. The cytochrome c release in the assay on C-32 melanoma cells [3] (at the higher concentrations) stood at 55.48±6.1%. Also, the LDH release with C-32 melanoma cells [4] (1 μM) is 19.17 (±4.2) percent; with C-32 melanoma cells [4] (5 μM), 68.14 (±7.1) percent and 68.14±4.3%.
Take methyl beta cyclodextrin: the depletion of cholesterol in the assay with C-32 melanoma cells [5] (0.25 mM) is 7%; in the assay with C-32 melanoma cells [5] (0.5 mM) it was 12%. Moreover, the cell proliferation result in assay [6] is “no change in cell proliferation”.
